Measurements reported in the supplement of paper PMC3937590.

Tests used:
Experiment in all cases: -log10 GI50 (growth inhibition 50%) (-log10(M)); higher = more potent growth inhibition
AU565 = tested on: AU565
Summary of the method: (§1)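 The reported figure is the negative logarithm of GI50, defined as the molar concentration that produces the set level of growth inhibition. The logarithm is base 10. It comes from a Gompertz curve fitted by nonlinear least squares to 72-hour luminescence data from breast cancer cell lines given nine doses in 1:5 serial dilution, in triplicate, with a time-zero plate as reference. A < qualifier marks values equal to the top dose.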

BT549 = tested on: BT549
Summary of the method: as §1

CAMA1 = tested on: CAMA1
Summary of the method: as §1

HCC1395 = tested on: HCC1395
Summary of the method: as §1

HCC1569 = tested on: HCC1569
Summary of the method: as §1

HCC1806 = tested on: HCC1806
Summary of the method: as §1

MCF10A = tested on: MCF10A
Summary of the method: as §1

MCF10F = tested on: MCF10F
Summary of the method: as §1

MDAMB134VI = tested on: MDAMB134VI
Summary of the method: as §1

MDAMB361 = tested on: MDAMB361
Summary of the method: as §1

SKBR3 = tested on: SKBR3
Summary of the method: as §1

SUM149PT = tested on: SUM149PT
Summary of the method: as §1

SUM229PE = tested on: SUM229PE
Summary of the method: as §1

SUM52PE = tested on: SUM52PE
Summary of the method: as §1

UACC812 = tested on: UACC812
Summary of the method: as §1

ZR751 = tested on: ZR751
Summary of the method: as §1

ZR75B = tested on: ZR75B
Summary of the method: as §1

T47D_KBluc = tested on: T47D_KBluc
Summary of the method: as §1

MX1 = tested on: MX1
Summary of the method: as §1

SMILES	-log10 GI50 (AU565)	-log10 GI50 (BT549)	-log10 GI50 (CAMA1)	-log10 GI50 (HCC1395)	-log10 GI50 (HCC1569)	-log10 GI50 (HCC1806)	-log10 GI50 (MCF10A)	-log10 GI50 (MCF10F)	-log10 GI50 (MDAMB134VI)	-log10 GI50 (MDAMB361)	-log10 GI50 (SKBR3)	-log10 GI50 (SUM149PT)	-log10 GI50 (SUM229PE)	-log10 GI50 (SUM52PE)	-log10 GI50 (UACC812)	-log10 GI50 (ZR751)	-log10 GI50 (ZR75B)	-log10 GI50 (T47D_KBluc)	-log10 GI50 (MX1)
CC(=O)Nc1cccc(-n2c(=O)n(C3CC3)c(=O)c3c(Nc4ccc(I)cc4F)n(C)c(=O)c(C)c32)c1	5.01	5.55	< 4.78	6.71	< 4.78	6.39	8.23	8.06	8.33	< 4.78	< 4.78	7.64	8.17	6.92	< 4.78	< 4.78	< 4.78		
CC(C)Oc1ccc(C(=O)N[C@H](CNC(=O)CN(C)C)Cc2ccc(-c3cn4cccc([C@H](C)O)c4n3)cc2)cc1Cl	7.62	7.3	7.33	7.35	6.59	7.34	7.29	6.29	6.52	7.43	7.34	7.17	7.42	7.65	7.94	7.09	7.18		
CCNCCCNC/C=C\CNCCCNCC	3.33	4.73	2.91	4.09	3.71	3.88	4.2	3.76	2.97	3.15	3.51	4.55	4.33	5.45	3.47	3.29	3.61		
CCn1cc(-c2ccnc3[nH]c(-c4cccc(CN(C)C)c4)cc23)c(-c2ccc(NC(=O)N(C)C)cc2)n1	5.52	5.71	5.05	5.27	6.17	5.16	6.12	5.69	5.59	5.22	5.29	5.55	6.33	6.86	5.07	5.08	5.85		
C[C@@H](Oc1cc(-n2cnc3ccc(CN4CCN(C)CC4)cc32)sc1C(N)=O)c1ccccc1C(F)(F)F	8.58	7.48	5.17	8.37	7.05	7.95	7.37	7.11	7.83	8.72	6.92	7.96	7.68	8.2	4.99	5.16	7.06		
O=C1NC(=O)/C(=C/c2ccc3nccc(-c4ccncc4)c3c2)S1	6.32	5.73	5.77	5.61	5.94	5.82	6.57	6.71	6.33	5.92	6.82	6.01	6.26	6.82	6.62	5.99	6.51		
C=CCNC1=C2C[C@@H](C)C[C@H](OC)[C@H](O)[C@@H](C)/C=C(\C)[C@H](OC(N)=O)[C@@H](OC)/C=C\C=C(/C)C(=O)NC(=CC1=O)C2=O [17-AAG]	7.24	7.51	6.6	6.54	6.84	7.05	7.4	7.5	7.42	7.29	7.55	7.01	7.56	7.79	7.96	6.83	7.27		
COc1cc2ncnc(Nc3cccc(Cl)c3)c2cc1OC [AG1478]	4.79	4.33	4.46	4.15	5.26	4.63	6.65	6.69	4.32	4.82	5.4	5.93	< 3.78	< 3.78		< 3.78	< 3.78		
CCc1c2c(nc3ccc(OC(=O)N4CCC(N5CCCCC5)CC4)cc13)-c1cc3c(c(=O)n1C2)COC(=O)[C@]3(O)CC [CPT-11]	5.83	5.47	4.84	6	4.62	5.81	5.7	5.18	4.94	5.25	5.49		5.16	5.87	5.49	5.44	5.82		
O=C(O)C1(C(=O)O)CCC1.[NH2-].[NH2-].[Pt+2] [Carboplatin]	4.95	4.61	3.72	5	3.96	4.81	4.2	4.41	3.66	4.34	5	4.82	4.27	4.71	4.76	4.1	3.52		
N.N.[Cl][Pt][Cl] [Cisplatin]	5.72	5.6	4.39	5.91	5.11	5.68	5.1	5.42	3.73	5.06	4.77	5.8	5.26	5.78	5.48	4.99	4.06		
CC(=O)O[C@@]12CO[C@@H]1C[C@H](O)[C@@]1(C)C(=O)[C@H](O)C3=C(C)[C@@H](OC(=O)[C@H](O)[C@@H](NC(=O)OC(C)(C)C)c4ccccc4)C[C@@](O)([C@@H](OC(=O)c4ccccc4)[C@H]21)C3(C)C [Docetaxel]	8.3	8.46		8.24	8.12	8.62	8.63	8.59	7.81	7.92	8	8.76	7.94	8.67	8.39	7.74	8.03	7.93	
COc1cccc2c1C(=O)c1c(O)c3c(c(O)c1C2=O)C[C@@](O)(C(=O)CO)C[C@@H]3O[C@H]1C[C@H](N)[C@H](O)[C@H](C)O1 [Doxorubicin]	7.03	6.94	6.58	6.6	5.59	6.79	6.79	6.64	5.95	6.63	6.9		6.72	7.01	7.12	6.87	6.67		
COc1cccc2c1C(=O)c1c(O)c3c(c(O)c1C2=O)C[C@@](O)(C(=O)CO)C[C@@H]3O[C@H]1C[C@H](N)[C@@H](O)[C@H](C)O1 [Epirubicin]	6.84	6.7		6.14	6.06	6.78	6.71	6.32	5.98	6.65		6.66	6.62	7.42		6.6	6.94		
CO[C@H]1C[C@@H]2CC[C@@H](C)[C@@](O)(O2)C(=O)C(=O)N2CCCC[C@H]2C(=O)O[C@H]([C@H](C)C[C@@H]2CC[C@@H](OCCO)[C@H](OC)C2)CC(=O)[C@H](C)/C=C(\C)[C@@H](O)[C@@H](OC)C(=O)[C@H](C)C[C@H](C)/C=C/C=C/C=C/1C [Everolimus]		6.88	8.15	4.98	5.15	4.61	6.08	6	7.27	8.35	6.84	5.42	4.75	7.73	7.49	7.55		5	5.33
O=c1[nH]cc(F)c(=O)[nH]1 [Fluorouracil]	4.69	4.01	3.51	3.18	3.96	4.61	4.95	5.37	2.66	3.98	4.48	4.14	4.08	4.65	4.34	4.52	4.95		
COc1cc2ncnc(Nc3ccc(F)c(Cl)c3)c2cc1OCCCN1CCOCC1 [Gefitinib]	5.97	4.86		5.17	5.19	5.31	6.17	6.16	4.72	5.03	5.56	5.62	5.21	5.1	6.04	< 4.48	4.67		
COC1=C2C[C@@H](C)C[C@H](OC)[C@H](O)[C@@H](C)/C=C(\C)[C@H](OC(N)=O)[C@@H](OC)/C=C\C=C(/C)C(=O)NC(=CC1=O)C2=O [Geldanamycin]	7.35	8.22	7.47	7.42	7.47	7.12	8.23	8.14	7.8	7.78	7.79	8.22	7.91	7.93	7.97	7.06	7.05		
NS(=O)(=O)c1ccc(Nc2nc(OCC3CCCCC3)c3[nH]cnc3n2)cc1 [NU6102]	4.64	4.6	4.79	5.03	4.79	4.81	5.32	5	4.74	4.58	4.51	5.14	5.1	5.27	4.42	4.82	4.85	4.43	5.47
O=C(O)C(=O)O.[NH-][C@@H]1CCCC[C@H]1[NH-].[Pt+2] [Oxaliplatin]		5.81			5.35	5.45	5.41	5.35	3.54	5.46	5.7	5.83	5.72	5.46	5.85	5.61	5.52		
CC(=O)O[C@H]1C(=O)[C@@]2(C)[C@H]([C@H](OC(=O)c3ccccc3)[C@]3(O)C[C@H](OC(=O)[C@H](O)[C@@H](NC(=O)c4ccccc4)c4ccccc4)C(C)=C1C3(C)C)[C@]1(OC(C)=O)CO[C@@H]1C[C@@H]2O [Paclitaxel]	8.14	8.16	7.95	7.71	7.95	8.11	8.03	8.08	7.99	7.79	7.94	8.03	7.72	8.2	8.08	7.76	7.38	7.84	
CC[C@@]1(O)C(=O)OCc2c1cc1n(c2=O)Cc2cc3c(CN(C)C)c(O)ccc3nc2-1 [Topotecan]	7.73	7.62	6.4	7.82	5.8	7.69	7.23	6.67	6.94	6.03	7.95		7.2	8.08	7.3	7.16	7.26		
CCC1=C[C@@H]2CN(C1)Cc1c([nH]c3ccccc13)[C@@](C(=O)OC)(c1cc3c(cc1OC)N(C)[C@H]1[C@@](O)(C(=O)OC)[C@H](OC(C)=O)[C@]4(CC)C=CCN5CC[C@]31[C@@H]54)C2 [Vinorelbine]	8.24	8.02	7.88	8.45	6.42	7.97	7.43	7.75	7.95	9	7.83	7.85	8.68	7.97	7.13	7.37	8.05		
